Results published in PubChem BioAssay AID330 (DTP/NCI, 2004).
“And” between values parts separate entries of the source, which are not always exact repeats. Equal values may be shown once. Inconclusive results and toxic doses are left out.

System: P388 leukemia ip, CD2F1 mice, survival T/C
Experiment: NCI In Vivo Anticancer Drug Screen. Data for tumor model P388 Leukemia (intraperitoneal) in CD2F1 (CDF1) mice
Details: endpoint: median survival time, higher = longer survival
Procedure, shortened: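 Mice carrying the transplanted tumor received test compound or vehicle. Survival was recorded in each group, and the value is the treated-group measurement divided by that of the vehicle-treated control group.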

[1] = dose: 50.0 mg/kg/injection, schedule: Q01DX009 (ip), vehicle: saline with Tween-80
[2] = dose: 100.0 mg/kg/injection, schedule: Q01DX009 (ip), vehicle: saline with Tween-80
[3] = dose: 100.0 mg/kg/injection, schedule: Q01DX001 (ip), vehicle: saline with Tween-80
[4] = dose: 200.0 mg/kg/injection, schedule: Q01DX001 (ip), vehicle: saline with Tween-80
[5] = dose: 60.0 mg/kg/injection, schedule: Q01DX005 (ip), vehicle: saline with Tween-80
[6] = dose: 120.0 mg/kg/injection, schedule: Q01DX005 (ip), vehicle: saline with Tween-80
[7] = dose: 12.5 mg/kg/injection, schedule: Q01DX009 (ip), vehicle: water

In the case of `O=C1NC(=O)C(F)(F)C(O)N1` (stereo not given), the T/C (dose: 75.0 mg/kg/injection, schedule: Q04DX002 (ip), vehicle: saline) is reported as 109 % of control, the T/C (dose: 100.0 mg/kg/injection, schedule: Q01DX009 (ip), vehicle: saline sonified) is reported as 154 % of control and the T/C (dose: 150.0 mg/kg/injection, schedule: Q01DX009 (ip), vehicle: saline sonified) is reported as 172 % of control. For the same compound, the T/C (dose: 150.0 mg/kg/injection, schedule: Q04DX002 (ip), vehicle: saline) was 109 % of control, the T/C (dose: 220.0 mg/kg/injection, schedule: Q01DX009 (ip), vehicle: saline sonified) was 177 % of control and the T/C (dose: 300.0 mg/kg/injection, schedule: Q04DX002 (ip), vehicle: saline) was 116 % of control. For the same compound, the T/C (dose: 600.0 mg/kg/injection, schedule: Q04DX002 (ip), vehicle: saline) was 106 % of control and the T/C (dose: 1200.0 mg/kg/injection, schedule: Q04DX002 (ip), vehicle: saline) was 104 % of control.

`COc1ccc(OC)c(NC(=O)N2CCCC2)c1` was tested, and the T/C [1] was 100 % of control, the T/C [2] was 96 % of control and the T/C (dose: 200.0 mg/kg/injection, schedule: Q01DX009 (ip), vehicle: saline with Tween-80) was 96 % of control.

In the case of `CC1=NNB(O)c2c1sc(Br)c2Br`, the T/C [3] is reported as 100 % of control and the T/C [4] is reported as 95 % of control.

`C=C=CCC(=O)N1CCCC1` was tested, and the T/C (dose: 50.0 mg/kg/injection, schedule: Q04DX002 (ip), vehicle: saline with Tween-80) was 99 % of control, the T/C (dose: 100.0 mg/kg/injection, schedule: Q04DX002 (ip), vehicle: saline with Tween-80) was 101 % of control and the T/C (dose: 200.0 mg/kg/injection, schedule: Q04DX002 (ip), vehicle: saline with Tween-80) was 104 % of control.

With `CCOC(=O)C1=C(C)OC(C)(OC(C)=O)C1=O` (stereo not given) the T/C (dose: 50.0 mg/kg/injection, schedule: Q01DX005 (ip), vehicle: saline) was 90 % of control, the T/C (dose: 100.0 mg/kg/injection, schedule: Q01DX005 (ip), vehicle: saline) was 103 % of control and the T/C (dose: 200.0 mg/kg/injection, schedule: Q01DX005 (ip), vehicle: saline) was 105 % of control.

In the case of `Cn1c(N)cc2nc3ccccc3n2c1=O`, the T/C [5] is reported as 96 % of control, the T/C [6] is reported as 92 % of control and the T/C (dose: 240.0 mg/kg/injection, schedule: Q01DX005 (ip), vehicle: saline with Tween-80) is reported as 89 % of control.

In the case of `COC(=O)c1ccc(NCC(=N)N)cc1`, the T/C (dose: 50.0 mg/kg/injection, schedule: Q01DX001 (ip), vehicle: saline) is reported as 100 % of control, the T/C (dose: 100.0 mg/kg/injection, schedule: Q01DX001 (ip), vehicle: saline) is reported as 100 % of control and the T/C (dose: 200.0 mg/kg/injection, schedule: Q01DX001 (ip), vehicle: saline) is reported as 104 % of control.

In the case of `O=NNc1ccc(Br)cn1`, the T/C (dose: 1.5 mg/kg/injection, schedule: Q01DX008 (ip), vehicle: water) is reported as 100 % of control, the T/C (dose: 1.56 mg/kg/injection, schedule: Q01DX009 (ip), vehicle: water) is reported as 115 % of control and the T/C (dose: 6.25 mg/kg/injection, schedule: Q01DX008 (ip), vehicle: water) is reported as 154 % of control. For the same compound, the T/C [7] was 184 % of control and the T/C (dose: 25.0 mg/kg/injection, schedule: Q01DX008 (ip), vehicle: water) was 181 % of control.

With `O=C1OCc2c1[nH]c(=O)[nH]c2=O` the T/C (dose: 6.25 mg/kg/injection, schedule: Q01DX009 (ip), vehicle: distilled water + Tween-80) was 105 % of control, the T/C (dose: 12.5 mg/kg/injection, schedule: Q01DX009 (ip), vehicle: distilled water + Tween-80) was 96 % of control and the T/C (dose: 25.0 mg/kg/injection, schedule: Q01DX009 (ip), vehicle: distilled water + Tween-80) was 110 % of control. The T/C (dose: 50.0 mg/kg/injection, schedule: Q01DX009 (ip), vehicle: distilled water + Tween-80) was 100 % of control, the T/C (dose: 100.0 mg/kg/injection, schedule: Q01DX009 (ip), vehicle: distilled water + Tween-80) was 105 % of control and 109 % of control and the T/C (dose: 200.0 mg/kg/injection, schedule: Q01DX009 (ip), vehicle: distilled water + Tween-80) was 98 % of control. For the same compound, the T/C (dose: 400.0 mg/kg/injection, schedule: Q01DX009 (ip), vehicle: distilled water + Tween-80) was 90 % of control.

In the case of `O=C(Nc1c(Cl)cccc1Cl)Oc1ccc(Cl)cc1`, the T/C [5] is reported as 122 % of control and the T/C [6] is reported as 114 % of control.

With `CC(C)N(C(C)C)P1(=NC(C)(C)C)N(C(C)(C)C)P(=NC(C)(C)C)(N(C(C)C)C(C)C)N1C(C)(C)C` (stereo not given) the T/C (dose: 12.5 mg/kg/injection, schedule: Q01DX005 (ip), vehicle: Klucel (hydroxypropylcellulose) (HPC)) was 107 % of control, the T/C (dose: 25.0 mg/kg/injection, schedule: Q01DX005 (ip), vehicle: Klucel (hydroxypropylcellulose) (HPC)) was 104 % of control and the T/C (dose: 50.0 mg/kg/injection, schedule: Q01DX005 (ip), vehicle: Klucel (hydroxypropylcellulose) (HPC)) was 100 % of control and 102 % of control. For the same compound, the T/C (dose: 100.0 mg/kg/injection, schedule: Q01DX005 (ip), vehicle: Klucel (hydroxypropylcellulose) (HPC)) was 102 % of control.

With `C[CH2][Sn]1([CH2]C)[O]S(=O)(=O)[O]1` the T/C (dose: 1.56 mg/kg/injection, schedule: Q01DX005 (ip), vehicle: saline) was 124 % of control.

`CSNC(C)=O` was tested, and the T/C (dose: 25.0 mg/kg/injection, schedule: Q01DX009 (ip), vehicle: saline with Tween-80) was 102 % of control, the T/C [1] was 109 % of control and the T/C [2] was 111 % of control.

For `Cn1ccn2cnnc2c1=O`, the T/C [3] was 100 % of control, the T/C [4] was 106 % of control and the T/C (dose: 400.0 mg/kg/injection, schedule: Q01DX001 (ip), vehicle: saline with Tween-80) was 99 % of control.

For `CC(=O)N/N=C/C=C/c1ccccc1`, the T/C (dose: 3.13 mg/kg/injection, schedule: Q01DX009 (ip), vehicle: saline with Tween-80) was 117 % of control, the T/C (dose: 6.25 mg/kg/injection, schedule: Q01DX009 (ip), vehicle: saline with Tween-80) was 106 % of control and the T/C (dose: 12.5 mg/kg/injection, schedule: Q01DX009 (ip), vehicle: saline with Tween-80) was 104 % of control.

For `C[CH2][Ge]1([CH2]C)[CH2]CC2(CCN(CCCN(C)C)C2)C[CH2]1`, the T/C (dose: 0.09 mg/kg/injection, schedule: Q01DX009 (ip), vehicle: saline) was 103 % of control, the T/C (dose: 0.19 mg/kg/injection, schedule: Q01DX009 (ip), vehicle: saline) was 103 % of control and 98 % of control and the T/C (dose: 0.39 mg/kg/injection, schedule: Q01DX009 (ip), vehicle: saline) was 101 % of control and 103 % of control. For the same compound, the T/C (dose: 0.78 mg/kg/injection, schedule: Q01DX009 (ip), vehicle: saline) was 100 % of control and 104 % of control, the T/C (dose: 1.56 mg/kg/injection, schedule: Q01DX009 (ip), vehicle: saline) was 100 % of control and 92 % of control and the T/C (dose: 3.12 mg/kg/injection, schedule: Q01DX009 (ip), vehicle: saline) was 104 % of control and 98 % of control. For the same compound, the T/C (dose: 6.25 mg/kg/injection, schedule: Q01DX009 (ip), vehicle: saline) was 104 % of control, the T/C (dose: 6.28 mg/kg/injection, schedule: Q01DX009 (ip), vehicle: water) was 101 % of control and the T/C (dose: 12.5 mg/kg/injection, schedule: Q01DX009 (ip), vehicle: saline) was 101 % of control and 104 % of control. The T/C [7] was 106 % of control, the T/C (dose: 25.0 mg/kg/injection, schedule: Q01DX009 (ip), vehicle: saline) was 100 % of control and 105 % of control and the T/C (dose: 25.0 mg/kg/injection, schedule: Q01DX009 (ip), vehicle: water) was 107 % of control. The T/C (dose: 50.0 mg/kg/injection, schedule: Q01DX009 (ip), vehicle: saline) was 100 % of control and 98 % of control, the T/C (dose: 50.0 mg/kg/injection, schedule: Q01DX009 (ip), vehicle: water) was 123 % of control and the T/C (dose: 75.0 mg/kg/injection, schedule: Q01DX009 (ip), vehicle: saline) was 103 % of control and 104 % of control.

With `O=C(OCC#CCOC(=O)C(Cl)Cl)C(Cl)Cl` the T/C (dose: 100.0 mg/kg/injection, schedule: Q04DX003 (ip), vehicle: saline with Tween-80) was 108 % of control, the T/C (dose: 200.0 mg/kg/injection, schedule: Q04DX003 (ip), vehicle: saline with Tween-80) was 104 % of control and the T/C (dose: 400.0 mg/kg/injection, schedule: Q04DX003 (ip), vehicle: saline with Tween-80) was 100 % of control.

For `COc1cccc2c1C(=O)c1c(O)c3c(c(O)c1C2=O)[C@@H](N=[N+]=[N-])[C@@](O)(C(C)=O)C[C@@H]3OC1CC(N)C(O)C(C)O1` (stereo not given in full), the T/C (dose: 3.13 mg/kg/injection, schedule: Q04DX003 (ip), vehicle: water) was 102 % of control, the T/C (dose: 6.25 mg/kg/injection, schedule: Q04DX003 (ip), vehicle: water) was 111 % of control and the T/C (dose: 12.5 mg/kg/injection, schedule: Q04DX003 (ip), vehicle: water) was 117 % of control and 120 % of control. The T/C (dose: 25.0 mg/kg/injection, schedule: Q04DX003 (ip), vehicle: water) was 122 % of control, the T/C (dose: 50.0 mg/kg/injection, schedule: Q04DX003 (ip), vehicle: water) was 105 % of control and 120 % of control and the T/C (dose: 100.0 mg/kg/injection, schedule: Q04DX003 (ip), vehicle: water) was 100 % of control.

For `O=C(CCCCC(=O)Nc1ccc2[nH]c3ccccc3c(=O)c2c1)Nc1ccc2[nH]c3ccccc3c(=O)c2c1`, the T/C (dose: 50.0 mg/kg/injection, schedule: Q01DX005 (ip), vehicle: saline with Tween-80) was 104 % of control, the T/C (dose: 100.0 mg/kg/injection, schedule: Q01DX005 (ip), vehicle: saline with Tween-80) was 105 % of control and the T/C (dose: 200.0 mg/kg/injection, schedule: Q01DX005 (ip), vehicle: saline with Tween-80) was 100 % of control.
